Measurements published in PubChem BioAssay AID248 (DTP/NCI, 2004).
Where “and” joins values, the source holds several entries; their conditions need not be identical. Equal values may be shown once. Toxic doses and inconclusive results are not listed. Cut-off read from the data, not from the text of the source: active = T/C of 150% or more; inactive = T/C below 125%.

Tested on: L1210 leukemia ip in BDF1 mice, survival T/C
Test: NCI In Vivo Anticancer Drug Screen. Data for tumor model L1210 Leukemia (intraperitoneal) in B6D2F1 (BDF1) mice
Conditions: endpoint: mean survival time, higher = longer survival
In short: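 Survival endpoint. Drug-treated group vs vehicle group, expressed as T divided by C. Tumor passaged by transplantation.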

[1] = dose: 100.0 mg/kg/injection, schedule: Q01DX001 (ip), vehicle: carboxymethylcellulose (CMC)
[2] = dose: 200.0 mg/kg/injection, schedule: Q01DX001 (ip), vehicle: carboxymethylcellulose (CMC)
[3] = dose: 400.0 mg/kg/injection, schedule: Q01DX001 (ip), vehicle: carboxymethylcellulose (CMC)
[4] = dose: 100.0 mg/kg/injection, schedule: Q04DX003 (ip), vehicle: saline
[5] = dose: 200.0 mg/kg/injection, schedule: Q04DX003 (ip), vehicle: saline
[6] = dose: 400.0 mg/kg/injection, schedule: Q04DX003 (ip), vehicle: saline
[7] = dose: 50.0 mg/kg/injection, schedule: Q01DX009 (ip), vehicle: Klucel (hydroxypropylcellulose) (HPC)
[8] = dose: 100.0 mg/kg/injection, schedule: Q04DX003 (ip), vehicle: Klucel (hydroxypropylcellulose) (HPC)
[9] = dose: 200.0 mg/kg/injection, schedule: Q04DX003 (ip), vehicle: Klucel (hydroxypropylcellulose) (HPC)
[10] = dose: 5.0 mg/kg/injection, schedule: Q01DX001 (ip), vehicle: other
[11] = dose: 10.0 mg/kg/injection, schedule: Q01DX001 (ip), vehicle: other
[12] = dose: 20.0 mg/kg/injection, schedule: Q01DX001 (ip), vehicle: other
[13] = dose: 40.0 mg/kg/injection, schedule: Q01DX001 (ip), vehicle: other
[14] = dose: 100.0 mg/kg/injection, schedule: Q01DX001 (ip), vehicle: Klucel (hydroxypropylcellulose) (HPC)
[15] = dose: 200.0 mg/kg/injection, schedule: Q01DX001 (ip), vehicle: Klucel (hydroxypropylcellulose) (HPC)
[16] = dose: 400.0 mg/kg/injection, schedule: Q04DX003 (ip), vehicle: Klucel (hydroxypropylcellulose) (HPC)
[17] = dose: 100.0 mg/kg/injection, schedule: Q01DX001 (ip), vehicle: saline
[18] = dose: 200.0 mg/kg/injection, schedule: Q01DX001 (ip), vehicle: saline
[19] = dose: 400.0 mg/kg/injection, schedule: Q01DX001 (ip), vehicle: saline
[20] = dose: 100.0 mg/kg/injection, schedule: Q01DX009 (ip), vehicle: saline
[21] = dose: 200.0 mg/kg/injection, schedule: Q01DX009 (ip), vehicle: saline

Measured: T/C

Cc1ccc(N=C2N(c3ccccc3)N(c3ccccc3)C2(c2ccccc2)c2ccccc2)cc1
inactive: [1] 92 % of control | [2] 88 % of control | [3] 88 % of control

Clc1ccccc1/C=C/C=C1c2ccccc2-c2ccccc21
inactive: [4] 98 % of control and 90 % of control | [5] 98 % of control | [6] 105 % of control and 92 % of control

CC(C)=CCN(CC=C(C)C)CCC(C#N)(c1ccc2ccccc2c1)C(C)C (stereo unspecified)
inactive: [7] 106 % of control | dose: 100.0 mg/kg/injection, schedule: Q01DX009 (ip), vehicle: Klucel (hydroxypropylcellulose) (HPC) 95 % of control | [8] 102 % of control | [9] 98 % of control

C1=CN2CC(c3ccccc3)=NNC2c2ccccc21 (stereo unspecified)
inactive: dose: 100.0 mg/kg/injection, schedule: Q04DX003 (ip), vehicle: alcohol 107 % of control | [4] 97 % of control | [5] 97 % of control

Cc1cnc2no[n+]([O-])c2c1
inactive: [8] 101 % of control | [9] 102 % of control

CC1(C)N=C(N)N=C(N)N1c1ccc2ccccc2c1
inactive: [10] 105 % of control | [11] 102 % of control | [12] 96 % of control | dose: 25.0 mg/kg/injection, schedule: Q01DX015 (ip), vehicle: other 97 % of control | [13] 105 % of control | dose: 50.0 mg/kg/injection, schedule: Q01DX015 (ip), vehicle: other 107 % of control | dose: 80.0 mg/kg/injection, schedule: Q01DX001 (ip), vehicle: other 100 % of control | dose: 100.0 mg/kg/injection, schedule: Q01DX001 (ip), vehicle: other 104 % of control

CSc1ncnc2nncnc12
inactive: [10] 104 % of control | [11] 106 % of control | [12] 101 % of control | [13] 98 % of control

Cc1cc(C)n(/N=C/c2c[nH]c3ccccc23)c(=O)c1C#N
inactive: [14] 97 % of control | [8] 97 % of control | [15] 97 % of control | [9] 94 % of control | dose: 400.0 mg/kg/injection, schedule: Q01DX001 (ip), vehicle: Klucel (hydroxypropylcellulose) (HPC) 96 % of control | [16] 97 % of control

CCCCN(CCCC)C(=O)C1C=C2c3cccc4[nH]cc(c34)CC2N(C)C1 (stereo unspecified)
inactive: dose: 100.0 mg/kg/injection, schedule: Q01DX009 (ip), vehicle: water 104 % of control | dose: 200.0 mg/kg/injection, schedule: Q01DX009 (ip), vehicle: water 110 % of control

c1cc2nnc3cccc4nnc(c1)c2c34
inactive: [17] 102 % of control | [18] 107 % of control | [19] 103 % of control

CCc1ccc(/C(C#N)=C/c2cccc3ccccc23)cc1
inactive: dose: 100.0 mg/kg/injection, schedule: Q04DX002 (ip), vehicle: alcohol 97 % of control | dose: 200.0 mg/kg/injection, schedule: Q04DX002 (ip), vehicle: alcohol 105 % of control | dose: 400.0 mg/kg/injection, schedule: Q04DX002 (ip), vehicle: alcohol 91 % of control

COC1=C(Nc2cccc(C)c2C)C(=O)C(OC)=C(Nc2cccc(C)c2C)C1=O
inactive: dose: 50.0 mg/kg/injection, schedule: Q01DX001 (ip), vehicle: saline 97 % of control | [17] 103 % of control | [20] 111 % of control | [4] 98 % of control | [18] 115 % of control | [21] 96 % of control | [5] 91 % of control | [19] 103 % of control | dose: 400.0 mg/kg/injection, schedule: Q01DX009 (ip), vehicle: saline 90 % of control | [6] 91 % of control

CCCCNC(=O)c1n[se]nc1NC(N)=O
inactive: dose: 25.0 mg/kg/injection, schedule: Q01DX Z (ip), vehicle: carboxymethylcellulose (CMC) 91 % of control | dose: 37.5 mg/kg/injection, schedule: Q01DX Z (ip), vehicle: carboxymethylcellulose (CMC) 89 % of control | dose: 50.0 mg/kg/injection, schedule: Q01DX Z (ip), vehicle: carboxymethylcellulose (CMC) 90 % of control

COC(=O)C1=CCC(C2(C)CO2)CC1 (stereo unspecified)
inactive: [8] 104 % of control | [9] 109 % of control | [16] 104 % of control

O=C(O)c1ccc(CNc2ccc(C(=O)CCl)cc2)cc1
inactive: [1] 102 % of control | [2] 102 % of control | [3] 118 % of control

COc1ccc(-c2c(C)nc(N)nc2OC)cc1
inactive: dose: 100.0 mg/kg/injection, schedule: Q04DX002 (ip), vehicle: saline with Tween-80 96 % of control | dose: 200.0 mg/kg/injection, schedule: Q04DX002 (ip), vehicle: saline with Tween-80 100 % of control | dose: 400.0 mg/kg/injection, schedule: Q04DX002 (ip), vehicle: saline with Tween-80 96 % of control

COc1ccc2c(c1)CCC2=O
inactive: dose: 50.0 mg/kg/injection, schedule: Q01DX009 (ip), vehicle: saline with Tween-80 112 % of control | dose: 100.0 mg/kg/injection, schedule: Q01DX009 (ip), vehicle: saline with Tween-80 112 % of control | [8] 91 % of control | [9] 96 % of control

COc1ccccc1-n1c(O)c(N=Nc2ccc(Br)cc2)c(=O)n(-c2ccc(Br)cc2)c1=S
inactive: dose: 50.0 mg/kg/injection, schedule: Q01DX001 (ip), vehicle: Klucel (hydroxypropylcellulose) (HPC) 93 % of control | [14] 109 % of control | [15] 102 % of control

CCN(CC)c1ccc(NC(C)=O)cc1
inactive: dose: 12.5 mg/kg/injection, schedule: Q01DX009 (ip), vehicle: Klucel (hydroxypropylcellulose) (HPC) 106 % of control | dose: 12.5 mg/kg/injection, schedule: Q04DX003 (ip), vehicle: Klucel (hydroxypropylcellulose) (HPC) 92 % of control | dose: 25.0 mg/kg/injection, schedule: Q01DX009 (ip), vehicle: Klucel (hydroxypropylcellulose) (HPC) 97 % of control | dose: 25.0 mg/kg/injection, schedule: Q04DX003 (ip), vehicle: Klucel (hydroxypropylcellulose) (HPC) 91 % of control | [7] 95 % of control

CC1(C)CC(C)(c2ccc(O)cc2)Oc2ccccc21 (stereo unspecified)
inactive: dose: 100.0 mg/kg/injection, schedule: Q04DX003 (ip), vehicle: saline with Tween-80 93 % of control | dose: 200.0 mg/kg/injection, schedule: Q04DX003 (ip), vehicle: saline with Tween-80 89 % of control

CC(C)N1C(=O)c2cccc3c(Br)ccc(c23)C1=O
inactive: [8] 96 % of control | [9] 97 % of control

C=CC[As](C)(=O)O
inactive: [20] 109 % of control | [21] 94 % of control

O=C1OC2C3C=CC(CC3)C2O1 (stereo unspecified)
inactive: dose: 7.5 mg/kg/injection, schedule: Q04DX002 (ip), vehicle: Klucel (hydroxypropylcellulose) (HPC) 105 % of control | dose: 15.0 mg/kg/injection, schedule: Q01DX001 (ip), vehicle: carboxymethylcellulose (CMC) 101 % of control | dose: 15.0 mg/kg/injection, schedule: Q04DX002 (ip), vehicle: Klucel (hydroxypropylcellulose) (HPC) 99 % of control | dose: 30.0 mg/kg/injection, schedule: Q01DX001 (ip), vehicle: carboxymethylcellulose (CMC) 114 % of control | dose: 30.0 mg/kg/injection, schedule: Q04DX002 (ip), vehicle: Klucel (hydroxypropylcellulose) (HPC) 96 % of control
